Tested on: CSM14.1 cells, thapsigargin, p-p38/p38 MSD immunoassay
Experiment: dose-dependent blockade of p38 phosphorylation, dose response, mechanism study for ER stress cell death project, cell lysate, CSM14.1 cells, thapsigargin, immunoblotting (AID 1387)
Conditions: at 10 µM (top of the series)

## COc1ccc(C2CC(=O)C3=C(C2)Nc2ccccc2NC3c2cccc(Oc3ccccc3)c2)cc1OC (stereo unspecified)
  relative p-p38/p38 ratio, lower = inhibition: 0

From PubChem BioAssay AID1387 (Sanford-Burnham Center for Chemical Genomics, 2008)
